EP1586565A1, “Substituted polycyclic aryl and heteroaryl pyrazinones useful for selective inhibition of the coagulation cascade” (Pharmacia Corporation, priority 1999, dated 2000)

Legend:
[1] = target: T1, TF-VIIa (Homo sapiens, UniProt P08709); experiment: TF-VIIa Assay; assay type: biochemical; conditions: for IC50 or % Inhibition TF-VIIa (30 µM): % inhibition at 30 µM (cells with % or %@30, bare 0); for IC50: cells printed as bare numbers (IC50), read-out: IC50 or % Inhibition TF-VIIa (30 µM)
T1 construct: An extrinsic pathway is initiated by the conversion of coagulation factor VII to VIIa by Xa; purchased American Diagnostica, Greenwich CT; Soluble TF was made in house in E. coli
T1 sequence (P08709 213-466 limits assumed): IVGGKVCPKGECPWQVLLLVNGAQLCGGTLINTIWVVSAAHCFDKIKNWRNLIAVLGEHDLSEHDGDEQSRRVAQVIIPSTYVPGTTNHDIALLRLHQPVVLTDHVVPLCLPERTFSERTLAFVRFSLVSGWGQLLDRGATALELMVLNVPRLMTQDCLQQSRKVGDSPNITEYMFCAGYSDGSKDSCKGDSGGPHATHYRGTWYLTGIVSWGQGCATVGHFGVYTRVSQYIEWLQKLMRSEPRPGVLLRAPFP
T1 sequence (P08709 61-212 limits assumed): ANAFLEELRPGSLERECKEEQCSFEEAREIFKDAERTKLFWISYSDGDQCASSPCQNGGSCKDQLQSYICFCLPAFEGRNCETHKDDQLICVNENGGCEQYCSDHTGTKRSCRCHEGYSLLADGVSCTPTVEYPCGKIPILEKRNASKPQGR
T1 sequence (P13726 33-251 partner limits assumed): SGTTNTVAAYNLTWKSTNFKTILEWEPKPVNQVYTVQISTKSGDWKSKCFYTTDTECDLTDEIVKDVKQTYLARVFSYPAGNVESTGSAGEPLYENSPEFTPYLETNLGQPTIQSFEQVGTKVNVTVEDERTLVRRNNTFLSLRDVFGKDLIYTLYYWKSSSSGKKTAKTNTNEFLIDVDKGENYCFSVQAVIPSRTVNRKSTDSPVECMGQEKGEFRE

[2] = target: T2, Human factor Xa (Homo sapiens, UniProt P00742); experiment: Xa Assay; assay type: biochemical; conditions: % inhibition at 30 µM (cells with % or %@30, bare 0)
T2 construct: leads from XII to XIIa to XIa to IXa and to the conversion of X to Xa; purchased Enzyme Research Laboratories, South Bend IN
T2 sequence (P00742 235-488 limits assumed): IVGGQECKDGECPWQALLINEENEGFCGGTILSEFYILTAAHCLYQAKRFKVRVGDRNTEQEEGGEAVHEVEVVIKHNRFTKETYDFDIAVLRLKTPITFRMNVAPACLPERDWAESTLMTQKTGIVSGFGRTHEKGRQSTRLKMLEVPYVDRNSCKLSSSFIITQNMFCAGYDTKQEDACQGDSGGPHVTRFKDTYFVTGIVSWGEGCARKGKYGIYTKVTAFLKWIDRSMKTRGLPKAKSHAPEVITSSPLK
T2 sequence (P00742 41-179 limits assumed): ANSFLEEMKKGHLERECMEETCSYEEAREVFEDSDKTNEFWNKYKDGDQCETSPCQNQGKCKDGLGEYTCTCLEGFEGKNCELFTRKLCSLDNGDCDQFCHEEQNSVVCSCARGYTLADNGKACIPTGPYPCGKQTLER

[3] = target: Trypsin (Sus scrofa, UniProt P00761); experiment: Trypsin Assay; conditions: for IC50 or % Inhibition Trpysin II (30 uM): % inhibition at 30 uM (cells with % or %@30, bare 0); for IC50: read-out: IC50 or % Inhibition Trpysin II (30 uM), cells printed as bare numbers (IC50)
Chain of Trypsin (P00761 9-231): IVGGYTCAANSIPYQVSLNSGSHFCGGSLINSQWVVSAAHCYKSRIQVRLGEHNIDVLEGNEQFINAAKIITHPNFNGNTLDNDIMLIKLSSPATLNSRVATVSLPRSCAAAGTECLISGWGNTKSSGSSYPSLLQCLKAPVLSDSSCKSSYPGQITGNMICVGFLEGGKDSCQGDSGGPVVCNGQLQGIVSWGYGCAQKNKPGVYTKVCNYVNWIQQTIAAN

| SMILES | IC50 or % Inhibition TF-VIIa (30 µM) [1] | IC50 or % Inhibition Factor Xa (30 µM) [2] | IC50 or % Inhibition Trpysin II (30 uM) [3] | IC50 [1] [µM] | IC50 [3] [µM] |
| --- | --- | --- | --- | --- | --- |
| N=C(N)c1ccc(CNC(=O)Cn2c(-c3ccc(Cl)cc3)c(Cl)nc(NCc3ccncc3)c2=O)cc1 [1471-19] | 33% | 26% | – | – | – |
| N=C(N)c1ccc(CNC(=O)Cn2c(-c3ccc(Cl)cc3)c(Cl)nc(NCCN3CCOCC3)c2=O)cc1 [1471-20] | 42% | 34% | – | – | – |
| COc1ccc(-c2c(Cl)nc(NCc3ccccc3)c(=O)n2CC(=O)NCc2ccc(C(=N)N)cc2)cc1 [1471-33] | 31% | 22% | – | – | – |
| COc1ccc(-c2c(Cl)nc(NCc3ccncc3)c(=O)n2CC(=O)NCc2ccc(C(=N)N)cc2)cc1 [1471-35] | 37% | 22% | – | – | – |
| COc1ccc(-c2c(Cl)nc(NCCN3CCOCC3)c(=O)n2CC(=O)NCc2ccc(C(=N)N)cc2)cc1 [1471-36] | 11% | 6% | – | – | – |
| COc1ccc(-c2c(Cl)nc(NCCc3ccncc3)c(=O)n2CC(=O)NCc2ccc(C(=N)N)cc2)cc1 [1471-37] | 39% | 7% | – | – | – |
| COc1ccc(-c2c(Cl)nc(NCCc3cccnc3)c(=O)n2CC(=O)NCc2ccc(C(=N)N)cc2)cc1 [1471-40] | 40% | 11% | – | – | – |
| N=C(N)c1ccc(CNC(=O)Cn2c(-c3ccc4c(c3)OCO4)c(Cl)nc(NCCN3CCOCC3)c2=O)cc1 [1471-44] | 34% | 13% | – | – | – |
| CCc1c(Cl)nc(NCCc2cccc(Cl)c2)c(=O)n1CC(=O)NCc1ccc(C(=N)N)cc1 [1471-62] | 4% | 0% | – | – | – |
| N=C(N)c1ccc(CNC(=O)Cn2c(-c3ccc(-c4ccccc4)cc3)c(Cl)nc(NCc3ccncc3)c2=O)cc1 [1471-67] | 12% | 16% | – | – | – |
| N=C(N)c1ccc(CNC(=O)Cn2c(-c3ccc(-c4ccccc4)cc3)c(Cl)nc(NCCc3cccc(Cl)c3)c2=O)cc1 [1471-70] | 10% | 12% | – | – | – |
| N=C(N)c1ccc(CNC(=O)Cn2c(-c3ccc(-c4ccccc4)cc3)c(Cl)nc(NCCc3ccccc3)c2=O)cc1 [1471-71] | 6% | 0% | – | – | – |
| N=C(N)c1ccc(CNC(=O)Cn2c(-c3ccc(-c4ccccc4)cc3)c(Cl)nc(NCCc3cccnc3)c2=O)cc1 [1471-72] | 15% | 22% | – | – | – |
| N=C(N)c1ccc(CNC(=O)Cn2c(-c3ccccc3)c(Cl)nc(NC3Cc4ccccc4C3)c2=O)cc1 [1507-08] | 7% | 1% | – | – | – |
| N=C(N)c1ccc(CNC(=O)Cn2c(-c3ccccc3)c(Cl)nc(NCc3ccc(Cl)cc3Cl)c2=O)cc1 [1507-22] | 45% | – | – | – | – |
| N=C(N)c1ccc(CNC(=O)Cn2c(-c3ccccc3)c(Cl)nc(NCc3ccccn3)c2=O)cc1 [1507-24] | 0% | 15% | 25%@30 | – | – |
| N=C(N)c1ccc(CNC(=O)Cn2c(-c3ccccc3)c(Cl)nc(NCc3cccc4ccccc34)c2=O)cc1 [1507-28] | 38% | – | – | – | – |
| N=C(N)c1ccc(CNC(=O)Cn2c(-c3ccccc3)c(Cl)nc(NCC(F)(F)F)c2=O)cc1 [1507-41] | 48% | 17% | – | – | – |
| N=C(N)c1ccc(CNC(=O)Cn2c(-c3ccccc3)c(Cl)nc(NCc3cc(F)cc(C(F)(F)F)c3)c2=O)cc1 [1512-29] | 47% | 4% | – | – | – |
| Cc1cccc(Cl)c1CNc1nc(Cl)c(-c2ccccc2)n(CC(=O)NCc2ccc(C(=N)N)cc2)c1=O [1512-31] | 43% | 14% | – | – | – |

| SMILES | IC50 or % Inhibition TF-VIIa (30 µM) [1] | IC50 or % Inhibition Factor Xa (30 µM) [2] | IC50 or % Inhibition Trpysin II (30 uM) [3] | IC50 [1] [µM] | IC50 [3] [µM] |
| --- | --- | --- | --- | --- | --- |
| N=C(N)c1ccc(CNC(=O)Cn2c(-c3ccccc3)c(Cl)nc(NCc3cccc(OC(F)(F)F)c3)c2=O)cc1 [1512-40] | 40% | 3% | – | – | – |
| N=C(N)c1ccc(CNC(=O)Cn2c(-c3ccccc3)c(Cl)nc(NCc3c(F)cccc3C(F)(F)F)c2=O)cc1 [1512-44] | 43% | 6% | – | – | – |
| Cc1cc(Cl)cc(Cl)c1CNc1nc(Cl)c(-c2ccccc2)n(CC(=O)NCc2ccc(C(=N)N)cc2)c1=O [1512-45] | 27% | 11% | – | – | – |
| N=C(N)c1ccc(CNC(=O)Cn2c(-c3ccc(C(F)(F)F)cc3)c(Cl)nc(NC3CCC3)c2=O)cc1 [1515-20] | 32% | – | – | – | – |
| N=C(N)c1ccc(CNC(=O)C(Cc2ccccc2)n2c(-c3ccccc3)c(Cl)nc(NC3CCC3)c2=O)cc1 (stereo not drawn) [1517-08] | 43% | 0% | – | – | – |
| N=C(N)c1ccc(CNC(=O)C(Cc2ccccc2)n2c(-c3ccccc3)c(Cl)nc(NCCc3ccccc3)c2=O)cc1 (stereo not drawn) [1517-14] | 30% | 0% | – | – | – |
| N=C(N)c1ccc(CNC(=O)C(Cc2ccccc2)n2c(-c3ccccc3)c(Cl)nc(NCCc3cccc(Cl)c3)c2=O)cc1 (stereo not drawn) [1517-20] | 22% | 0% | – | – | – |
| CCCCNc1nc(Cl)c(-c2ccccc2)n(CC(=O)NCc2ccc(C(=N)N)cc2)c1=O [1517-35] | 33% | 0% | – | – | – |
| N=C(N)c1ccc(CNC(=O)Cn2c(-c3ccccc3)c(Cl)nc(NCC3CC3)c2=O)cc1 [1517-43] | 25% | 0% | 43% | – | – |
| N=C(N)c1ccc(CNC(=O)Cn2c(-c3ccccc3)c(Cl)nc(N3CCC3)c2=O)cc1 [1522-28] | – | – | – | > 30 | – |
| Nc1ccc(CNC(=O)Cn2c(Cc3ccccc3)c(Cl)nc(NCCc3ccccc3)c2=O)cn1 [Example 9] | – | – | – | > 30 | > 30 |
| Nc1ccc(CNC(=O)Cn2c(CCc3ccccc3)c(Cl)nc(NCCc3ccccc3)c2=O)cn1 [Example 10, 3-(2-Phenylethylamino)-5-chloro-6-phenethyl-1-(2-amino-5-methylcarboxamidomethylpyridinyl)pyrazinone] | – | – | – | > 30 | > 30 |
| N=C(N)c1ccc(CNC(=O)Cn2c(-c3ccc(-c4ccccc4)cc3)c(Cl)nc(NCCc3cccnc3)c2=O)cc1 [Example 21] | 8%@30 | – | – | – | – |
| N=C(N)c1ccc(CNC(=O)Cn2c(-c3ccc(-c4ccccc4)cc3)c(Cl)nc(NCCc3ccc(Cl)cc3)c2=O)cc1 [Example 22] | 0%@30 | – | – | – | – |
| N=C(N)NCC#CCNC(=O)Cn1c(-c2ccccc2)cnc(NCCc2ccccc2)c1=O [Example 36] | 5% | 0% | 30% | – | – |
| CC(C)Nc1nc(Cl)c(-c2cccc([N+](=O)[O-])c2)n(CC(=O)NCc2ccc(C(N)=NO)cc2)c1=O [Example 61] | 1% | 0% | 10% | – | – |
| CC(=O)Nc1cccc(-c2c(Cl)nc(NC(C)C)c(=O)n2CC(=O)NCCc2ccc(C(=N)N)cc2)c1 [Example 68] | 32% | 6% | – | – | – |
| Nc1cccc(-c2c(Cl)nc(NC3CCC3)c(=O)n2CC(=O)NCCc2ccccc2)c1 [compound 89] | 5%@30 | 5%@30 | 9%@30 | – | – |
| Nc1cccc(-c2c(Cl)nc(NC3CCC3)c(=O)n2CC(=O)NCc2ccccc2)c1 [compound 99] | 6%@30 | 8%@30 | 7%@30 | – | – |
